Measurements reported in US12139473B2, “Substituted-N-heteroaryl compounds and uses thereof” (Bionomics Limited, priority 2019, dated 2024).

Columns and labels:
[1] = molecular target: T1, hKv3.2 (Homo sapiens, UniProt Q96PR1); experiment: Automated patch clamp electrophysiology (Patchliner), CHO/Kv3.2 cells; type: cell-based; conditions: 10 μM compound, hKv3.2 in CHO-K1, whole-cell; for activation at 10 µM: peak current at voltage step of −10 mV vs vehicle (0.33% DMSO), read-out: Kv3.2 Activity at 10 μM Potentiation (%); for Kv3.2 Activity at 10 μM Voltage Shift (mV): voltage shift of the IV curve at V1/2
T1 construct: expressed in transfected cells
T1 sequence (Q96PR1 1-638): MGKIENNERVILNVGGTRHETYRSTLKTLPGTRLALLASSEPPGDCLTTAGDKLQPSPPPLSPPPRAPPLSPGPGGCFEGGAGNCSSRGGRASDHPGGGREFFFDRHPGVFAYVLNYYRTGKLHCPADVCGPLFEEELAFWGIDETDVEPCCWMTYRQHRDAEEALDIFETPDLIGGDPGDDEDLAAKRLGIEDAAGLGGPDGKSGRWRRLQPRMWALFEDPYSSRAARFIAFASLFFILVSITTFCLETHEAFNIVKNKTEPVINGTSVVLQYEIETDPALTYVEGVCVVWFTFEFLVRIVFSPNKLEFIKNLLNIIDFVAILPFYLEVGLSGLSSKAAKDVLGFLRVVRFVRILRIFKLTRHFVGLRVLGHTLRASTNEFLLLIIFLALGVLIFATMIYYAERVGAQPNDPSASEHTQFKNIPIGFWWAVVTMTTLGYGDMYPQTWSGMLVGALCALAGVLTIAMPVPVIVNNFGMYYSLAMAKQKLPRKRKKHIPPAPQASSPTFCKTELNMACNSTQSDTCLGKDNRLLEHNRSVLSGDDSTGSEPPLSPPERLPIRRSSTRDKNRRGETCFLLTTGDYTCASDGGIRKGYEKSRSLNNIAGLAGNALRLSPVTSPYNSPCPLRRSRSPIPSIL
Protocol: hKv3.1, hKv3.2, hKv3.3, and hKv3.4 were stably expressed in CHO-K1 (Chinese hamster ovary) cells and kept under constant antibiotic selection. For in vitro assays, cells were maintained in appropriate growth medium at 37° C. and 5% CO2 in a humidified incubator.
hKv3.X expressing cells were plated in T-25 flasks for 3-4 days at 37° C. (no selection antibiotic) prior to use and grown to 80% confluence. Cells were washed twice with PBS (calcium and magnesium free) and detached with a 5-minute treatment at 37° C. with 2-3 mls of Accutase®. Cells were collected, and flask was washed in CHO-SFM II media (Life Technologies Gibco), centrifuged for 2 minutes at ˜110×g and resuspended to obtain a single cell suspension of ˜2-3×10^6 cells/ml.
The intracellular solution contained the following (in mM): KCl 50, NaCl 10, KF 60, EGTA 20, HEPES 10, adjusted to pH 7.2 with KOH and an osmolarity of 285 mOsmol. Seal enhancer was purchased from Nanion (80 mM NaCl, 3 mM KCl, 10 mM MgCl2, 35 mM CaCl2), 10 mM HEPES, pH7.4, 298 mOsmol. The external solution contained (in mM): NaCl 140, KCl 4, CaCl2) 2, MgCl2 1, HEPES 10, Glucose 5, adjusted to pH7.4 and an osmolarity of 298 mOsmol.
All compounds were initially tested at 10 uM at a final DMSO concentration of 0.33%. Compounds were dissolved in dimethylsulfoxide (DMSO) at a stock concentration of 30 mM. The compound was further diluted 1:10 to give a stock concentration of 3 mM in DMSO. The final assay solution was diluted 1:300 in External solution to give a final concentration of 10 uM. For the DMSO Control Buffer 30 uL of DMSO was added to 10 mL buffer.
All electrophysiological recordings were performed at ambient temperature (21-23° C.) using automated patch clamp (Patchliner, Nanion Technologies GmbH) in the whole-cell configuration.
Cell membrane potentials were held at −80 mV, and currents were evoked by voltage steps (1000 ms duration) from −60 to +60 mV in 10 mV increments. This was performed first with vehicle (0.33% DMSO) and then with 10 uM compound, after a 3-minute incubation period. Data was taken from 4 cells per assay.
The recordings were analysed and selected using peak current amplitude (>100 pA at the −10 mV voltage step) in the absence of compound to eliminate unsuitable cells from analysis. Peak current amplitude was measured and recorded for each voltage step and data was normalised to the maximum current at +60 mV. The normalised Kv3.x currents following addition of the compound were then compared with the currents recorded prior to compound addition (vehicle control). Positive modulation was determined as % potentiation at the voltage step of −10 mV=[current (cmpd)/current (veh)]*100−100. % potentiation≥50% was considered acceptable. In addition, voltage shift of the IV curve at V1/2 was measured. V1/2 of ≥−5 mV was also considered acceptable. IV curves were plotted in GraphPad Prism (software version 6.0) and fitted with a Boltzmann equation, where V1/2 is the voltage at half-maximal activation.

[2] = molecular target: T2, hKv3.1 (Homo sapiens, UniProt P48547); experiment: Automated patch clamp electrophysiology (Patchliner), CHO/Kv3.1 cells; type: cell-based; conditions: 10 μM compound, hKv3.1 in CHO-K1, whole-cell; for Kv3.1 Activity at 10 μM Potentiation (%): peak current at voltage step of −10 mV vs vehicle (0.33% DMSO); for Kv3.1 Activity at 10 μM Voltage Shift (mV): voltage shift of the IV curve at V1/2
T2 construct: expressed in transfected cells
T2 sequence (P48547 1-511): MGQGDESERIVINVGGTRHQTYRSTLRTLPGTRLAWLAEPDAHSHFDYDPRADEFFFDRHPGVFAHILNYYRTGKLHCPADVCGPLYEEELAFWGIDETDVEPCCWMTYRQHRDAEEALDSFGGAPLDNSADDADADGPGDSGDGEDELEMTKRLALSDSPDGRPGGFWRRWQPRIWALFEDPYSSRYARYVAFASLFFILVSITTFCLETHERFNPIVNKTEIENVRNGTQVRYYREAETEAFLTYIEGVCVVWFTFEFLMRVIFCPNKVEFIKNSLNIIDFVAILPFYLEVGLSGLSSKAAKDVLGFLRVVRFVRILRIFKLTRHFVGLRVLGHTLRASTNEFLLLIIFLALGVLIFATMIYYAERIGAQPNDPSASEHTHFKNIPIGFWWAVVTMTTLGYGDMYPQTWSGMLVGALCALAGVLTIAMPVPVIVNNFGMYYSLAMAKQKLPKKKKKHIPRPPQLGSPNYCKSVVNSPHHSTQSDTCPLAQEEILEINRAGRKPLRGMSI
Summary of the method: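 Whole-cell automated patch clamp on CHO-K1 stably expressing hKv3.1 or hKv3.2, 21-23 °C, held at −80 mV with 1000 ms steps from −60 to +60 mV. Compound at 10 uM final (0.33% DMSO) after 3-min incubation versus vehicle, 4 cells; % potentiation at −10 mV and Boltzmann-fitted V1/2 shift.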

SMILES | activation at 10 µM [1] [%] | Kv3.2 Activity at 10 μM Voltage Shift (mV) [1] [mV] | Kv3.1 Activity at 10 μM Potentiation (%) [2] [%] | Kv3.1 Activity at 10 μM Voltage Shift (mV) [2] [mV]
CC[C@H]1NC(=O)N(c2nccc(Oc3ccc(C)c(OC)c3)n2)C1=O [Example 56, (5R)-5-ethyl-3-[4-(3-methoxy-4-methyl-phenoxy)pyrimidin-2-yl]imidazolidine-2,4-dione] | 35 | −4.6 | 26 | −5.0
CC[C@H]1NC(=O)N(c2nccc(Oc3ccccc3-c3ccccc3)n2)C1=O [Example 58, (5R)-5-ethyl-3-[4-(2-phenylphenoxy)pyrimidin-2-yl]imidazolidine-2,4-dione] | 39 | −4.6 | 61 | −6.9
COc1cc(Oc2nccc(N3C(=O)NC(C)(C)C3=O)n2)ccc1C [Example 63, 3-[2-(3-methoxy-4-methyl-phenoxy)pyrimidin-4-yl]-5,5-dimethyl-imidazolidine-2,4-dione] | 25 | −2.3 | 50 | −4.2
COc1cc(Oc2nccc(N3C(=O)NC(C)(C)C3=O)n2)ccc1C(F)(F)F [Example 65, 3-[2-[3-methoxy-4-(trifluoromethyl)-phenoxy]pyrimidin-4-yl]-5,5-dimethyl-imidazolidine-2,4-dione] | 35 | −2.8 | 32 | −2.7
COc1cc(Oc2nccc(N3C(=O)NC4(CCCCC4)C3=O)n2)ccc1C [Example 74, 3-[2-(3-methoxy-4-methyl-phenoxy)pyrimidin-4-yl]-1,3-diazaspiro[4.5]decane-2,4-dione] | 12 | −1.6 | 41 | −3.8
